For data set [1], the target named is T1, ΔF508-CFTR (Homo sapiens, UniProt P13569, DEL508-508). Kind of data set: Patch clamp, cell-attached patches, macroscopic current, NIH/3T3-ΔF508 cells. How it is done:
FIGS. 3A and B show recordings of the potentiation of wild-type (wt) and ΔF508-CFTR channel activity by genistein. Channels in cell-attached patches from NIH/3T3-CFTR (FIG. 3A) and NIH/3T3-ΔF508cells (FIG. 3B), were stimulated as indicated with 10 μM forskolin and 50μ genestein.
Cell culture: NIH/3T3-CFTR, NIH/3T3-ΔF508, and NIH/3T3 mock cells (generous gifts from Dr. Richard Mulligan of Children's Hospital and Medical Center, Harvard Medical School) were grown as described [Bradbury et al., 1992] at 37° C. and 5% CO2 in Dulbecco's modified Eagle's medium-H21 supplemented with 10% new-born calf serum, 4 mM glutamine, 25 mM glucose, 100 μg/ml penicillin, 100 μg/ml streptomycin, and 50 μg/ml gentamicin. Cells were maintained in T75 flasks, passaged at 90-95% confluency, and split one to four. For measurements of I^- efflux and in vivo phosphorylation, cells were seeded onto 35-mm dishes at […]. For patch-clamp experiments, cells were grown on coverglass chips in 35-mm culture dishes. Media were replaced 24 hours after plating and thereafter every 48 hours. In all cases, media were changed on the day before I^- efflux studies, NIH/3T3-ΔF508 cells were transferred to 27° C. three days before use, and 1 day prior to study, media were supplemented with 5 mM butyrate. For patch-clamp studies, where a constant level of functional ΔF508-CFTR was not essential, NIH/3T3-ΔF508 cells were cultured at 27° C. for 2-6 days before use. Calu-3 cells were grown and maintained as described by Hunter [1995].
Electrophysiology: CFTR channel currents were recorded at room temperature (~22° C.) with a patch-clamp amplifier (EPC-9, Heka Electronic), filtered at 100 Hz with a built-in three-pole Bessel filter, and stored on videotapes. Data were subsequently refiltered at 25 Hz with an eight-pole Bessel filter (Frequency Device, Havervill, Mass.) and captured onto a hard disk at a sampling rate of 50 Hz. […] Patch-clamp electrodes were made from Corning 7052 glass capillaries (Warner Instrument, Hammed, Conn.). The pipette resistance was usually 3-5 M.OMEGA., and the seal resistance was >20 G.OMEGA.. The pipette solution contained (in mM) 140 N-methyl-D-glucamine chloride (NMDG-C1), 2 MgCl2, 5Ca Cl2, and 10 HEPES (pH 7.4 with NMDG). The superfusion solution contained (in mM) 150 […], 2 MgCl2, 1 EGTA, 5 glucose, and 5 HEPES (pH 7.4 with NaOH). […]
Statistics: Mean currents and variance were estimated with Igor (Wavemetrics, Lake Oswego, Oreg.). […] Po was calculated from patches containing a single channel by dividing the open channel current amplitude with the mean-current amplitude. […] Calculated values are presented as means±SE. […]
(Patch clamp records ionic current or voltage across a cell membrane.)

Data set [2] concerns wt-CFTR. Kind of data set: Patch clamp, cell-attached patches, Calu-3 cells. It is filed as cell-based, human. The note with it: 50 μM genistein on forskolin, n=15. An excerpt: (§1) Downward deflections represent channel opening.
The target of data set [3] is T2, wt-CFTR (Homo sapiens, UniProt P13569). How it is done:
(§2) Electrophysiology: CFTR channel currents were recorded at room temperature (~22° C.) with a patch-clamp amplifier (EPC-9, Heka Electronic), filtered at 100 Hz with a built-in three-pole Bessel filter, and stored on videotapes. Data were subsequently refiltered at 25 Hz with an eight-pole Bessel filter (Frequency Device, Havervill, Mass.) and captured onto a hard disk at a sampling rate of 50 Hz. […] Patch-clamp electrodes were made from Corning 7052 glass capillaries (Warner Instrument, Hammed, Conn.). The pipette resistance was usually 3-5 M.OMEGA., and the seal resistance was >20 G.OMEGA.. The pipette solution contained (in mM) 140 N-methyl-D-glucamine chloride (NMDG-C1), 2 MgCl2, 5Ca Cl2, and 10 HEPES (pH 7.4 with NMDG). The superfusion solution contained (in mM) 150 […], 2 MgCl2, 1 EGTA, 5 glucose, and 5 HEPES (pH 7.4 with NaOH). In excised inside-out patch experiments, the bath solution contained (in mM) 130 MNDG-Cl, 10 EGTA, 10 HEPES, 20 tetraethylammonium chloride, 8 Tris, and 2 MgCl2 (pH 7.4 with NMDG). Pipette potential was held at 50 mV relative to the bath. Downward deflections represent channel opening.

Data set [4] addresses T1, ΔF508-CFTR. Kind of data set: CFTR gating in excised inside-out patches, NIH/3T3-ΔF508 cells. On the procedure:
FIGS. 9A and B are recordings of the effects of genistein on CFTR gating in excised inside-out patches from NIH/3T3-CFTR or NIH/3T3-ΔF508 cells. CFTR channels were activated by 10 μM forskolin +20 nM calyculin A before excision into an inside-out configuration. Presence of calyculin A helps to slow channel dephosphorylation. (A): continuous 14.5 minute recording of a patch containing wt-CFTR. Expanded traces are 22 seconds in length. ATP (500 μM) with or without 20 μM genistein was present as indicated. (B): 2 traces of 44 seconds in length of an excised inside-out patch with CFTR-ΔF508.
as §2
Channels were first activated in cell-attached patches with forskolin plus calyculin A, a membrane-permeant phosphatase inhibitor [Suganuma et al., 1991]. Patches were then excised into an inside-out configuration.

In data set [5] the test system is cAMP levels or PKA activity. The note with it: cited from earlier work.
For the next data set, the system named is topoisomerases. The note with it: cited from earlier work.
The next data set has as its system histidine kinase. The conditions noted are these: cited from earlier work.
A further data set has as its system protein phosphatase. The note with it: cited from earlier work.
The target of data set [6] is T2, wt-CFTR. It is filed as cell-based. Further details: expressed in transfected cells. The conditions noted are these: 50 μM genistein on forskolin; HEK293; n=10.
Excerpt: Transient expression of wt-CFTR in HEK293 cells: The pRBG4 vector containing wt-CFTR cDNA is a generous gift from Drs. Kevin Gunderson and Ron Kopito of Stanford University. HEK293 cells were transfected with the calcium phosphate method as described previously [Gunderson et al., 1994].
as §1

The target of data set [7] is T2, wt-CFTR. On the set-up: expressed in transfected cells; host or cells: pooled: Calu-3 (endogenous, n=2). The note with it: cited from earlier work.
Data set [8] concerns the target T1, ΔF508-CFTR. The data set is described as follows: Other protein tyrosine kinase inhibitors, activation of ΔF508-CFTR. The class given is cell-based. On the set-up: expressed in transfected cells; host or cells: NIH/3T3 cells, stably transfected (NIH/3T3-ΔF508, gift of Dr. Richard Mulligan).

Values joined by “and” are separate entries in the source; they are usually repeats but may differ in a detail not shown here. Equal values may be shown once. “Also recorded” adds a separate entry of the source.

T2 sequence (P13569 whole entry, the tested form may be a part): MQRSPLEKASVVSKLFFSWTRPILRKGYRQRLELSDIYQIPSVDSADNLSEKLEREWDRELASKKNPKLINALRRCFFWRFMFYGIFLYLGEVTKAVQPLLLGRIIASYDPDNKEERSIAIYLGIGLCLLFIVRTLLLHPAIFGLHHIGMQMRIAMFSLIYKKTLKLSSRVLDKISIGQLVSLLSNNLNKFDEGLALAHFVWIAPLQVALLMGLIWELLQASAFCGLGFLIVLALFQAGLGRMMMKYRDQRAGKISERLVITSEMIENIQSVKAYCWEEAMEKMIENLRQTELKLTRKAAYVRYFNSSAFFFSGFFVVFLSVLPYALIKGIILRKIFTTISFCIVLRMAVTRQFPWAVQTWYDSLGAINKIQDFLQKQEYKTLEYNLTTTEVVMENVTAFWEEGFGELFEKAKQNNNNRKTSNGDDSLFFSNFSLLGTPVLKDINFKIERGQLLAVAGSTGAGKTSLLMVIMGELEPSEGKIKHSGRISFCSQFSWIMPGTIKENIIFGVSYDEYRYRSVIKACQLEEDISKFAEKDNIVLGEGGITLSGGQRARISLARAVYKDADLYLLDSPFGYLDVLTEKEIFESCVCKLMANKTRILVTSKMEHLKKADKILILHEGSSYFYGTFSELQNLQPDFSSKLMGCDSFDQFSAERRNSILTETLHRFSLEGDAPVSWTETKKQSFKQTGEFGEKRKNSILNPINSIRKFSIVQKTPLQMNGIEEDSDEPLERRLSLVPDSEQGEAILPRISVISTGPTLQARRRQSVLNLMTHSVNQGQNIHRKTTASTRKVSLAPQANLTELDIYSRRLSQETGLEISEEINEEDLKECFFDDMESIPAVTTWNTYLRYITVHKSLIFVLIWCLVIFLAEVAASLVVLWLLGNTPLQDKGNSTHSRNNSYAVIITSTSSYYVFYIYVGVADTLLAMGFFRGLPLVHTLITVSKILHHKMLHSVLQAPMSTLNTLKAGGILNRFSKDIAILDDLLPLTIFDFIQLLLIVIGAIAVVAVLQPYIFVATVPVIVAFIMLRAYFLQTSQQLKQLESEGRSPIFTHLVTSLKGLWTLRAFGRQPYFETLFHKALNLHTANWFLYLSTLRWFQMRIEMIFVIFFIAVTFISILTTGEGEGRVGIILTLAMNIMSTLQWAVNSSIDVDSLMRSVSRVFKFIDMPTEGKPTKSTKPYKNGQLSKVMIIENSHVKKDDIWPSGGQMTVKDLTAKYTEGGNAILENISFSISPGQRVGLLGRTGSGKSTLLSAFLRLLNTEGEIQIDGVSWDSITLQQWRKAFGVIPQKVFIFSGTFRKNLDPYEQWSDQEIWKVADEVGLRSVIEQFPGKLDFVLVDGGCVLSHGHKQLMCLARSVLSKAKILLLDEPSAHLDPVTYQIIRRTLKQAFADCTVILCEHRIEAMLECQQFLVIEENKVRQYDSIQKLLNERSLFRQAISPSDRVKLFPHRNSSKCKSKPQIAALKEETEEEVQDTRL
T1 sequence (P13569 with tags, fused parts or gaps DEL508-508): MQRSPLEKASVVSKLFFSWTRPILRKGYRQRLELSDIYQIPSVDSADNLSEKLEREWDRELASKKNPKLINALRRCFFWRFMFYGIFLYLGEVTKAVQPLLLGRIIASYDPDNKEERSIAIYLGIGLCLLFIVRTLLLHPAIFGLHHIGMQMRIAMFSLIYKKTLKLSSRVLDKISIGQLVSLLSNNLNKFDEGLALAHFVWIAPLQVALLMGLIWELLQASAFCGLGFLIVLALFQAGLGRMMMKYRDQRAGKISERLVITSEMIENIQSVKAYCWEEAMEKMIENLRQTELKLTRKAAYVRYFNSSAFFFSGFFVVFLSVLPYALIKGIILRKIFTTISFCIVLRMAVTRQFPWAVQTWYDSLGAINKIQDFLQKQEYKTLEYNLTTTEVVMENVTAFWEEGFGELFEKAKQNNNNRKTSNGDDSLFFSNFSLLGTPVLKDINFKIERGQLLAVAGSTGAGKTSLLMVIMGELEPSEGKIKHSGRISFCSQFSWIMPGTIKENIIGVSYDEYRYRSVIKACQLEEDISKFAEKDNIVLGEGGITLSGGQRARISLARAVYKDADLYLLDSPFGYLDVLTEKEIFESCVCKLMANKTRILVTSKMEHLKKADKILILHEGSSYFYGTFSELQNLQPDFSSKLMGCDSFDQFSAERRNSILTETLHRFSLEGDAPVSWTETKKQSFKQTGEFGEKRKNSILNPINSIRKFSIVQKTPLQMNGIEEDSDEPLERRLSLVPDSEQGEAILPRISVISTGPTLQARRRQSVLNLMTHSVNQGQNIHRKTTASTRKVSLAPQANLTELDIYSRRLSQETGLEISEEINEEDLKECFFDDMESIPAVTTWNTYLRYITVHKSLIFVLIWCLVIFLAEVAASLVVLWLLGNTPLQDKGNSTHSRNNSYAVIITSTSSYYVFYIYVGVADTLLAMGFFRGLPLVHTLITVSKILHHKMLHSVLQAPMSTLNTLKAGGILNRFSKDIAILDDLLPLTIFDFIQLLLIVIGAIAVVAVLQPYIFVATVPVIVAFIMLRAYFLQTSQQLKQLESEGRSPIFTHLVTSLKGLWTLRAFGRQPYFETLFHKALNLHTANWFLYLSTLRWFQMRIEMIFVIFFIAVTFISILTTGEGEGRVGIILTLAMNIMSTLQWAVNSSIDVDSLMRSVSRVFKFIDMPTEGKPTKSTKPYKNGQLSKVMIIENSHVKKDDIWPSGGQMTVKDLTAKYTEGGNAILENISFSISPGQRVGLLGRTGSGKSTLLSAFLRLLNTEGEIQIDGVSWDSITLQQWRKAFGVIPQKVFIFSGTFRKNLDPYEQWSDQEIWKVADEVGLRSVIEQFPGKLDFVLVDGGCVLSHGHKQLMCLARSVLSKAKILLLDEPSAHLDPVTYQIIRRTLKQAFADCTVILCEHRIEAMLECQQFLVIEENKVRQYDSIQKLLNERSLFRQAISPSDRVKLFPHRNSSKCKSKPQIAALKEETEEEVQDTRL

On to `O=c1c(-c2ccc(O)cc2)coc2cc(O)cc(O)c12` [Genistein, 4',5,7-trihydroxyisoflavone], for which the “patches showing channel activity” value on ΔF508-CFTR [1] (10 μM forskolin plus 50 μM genistein, cells grown at 37° C.) is given as “Approximately 10%”. Also, the “average increase in mean-current amplitude by genistein” value (from here on “average increase”) on ΔF508-CFTR [1] (50 μM genistein on 10 μM forskolin, cells cultured at 27° C., 23 patches, 50 µM) is 18.6±2.2 fold and 19 fold. For the same compound, on ΔF508-CFTR [1] (forskolin plus genistein, cells grown at 27° C., 44 of 82), the patches responding worked out at 54%. In addition, the “average increase” value in the data set with wt-CFTR [2] was 3.1±0.3 fold. Further, the “magnitude of potentiation by genistein after patch cramming” value on wt-CFTR [3] (patch crammed into a different NIH/3T3-CFTR cell) was “similar”. Further, the “increase of mean current by genistein” value on wt-CFTR [3] (wt-CFTR crammed into NIH/3T3-ΔF508 cell, 10 μM forskolin, 50 μM genistein, n=3) is reported as 3.2±0.3 fold. The channel open time on ΔF508-CFTR [4] (ATP with genistein, stated for both wt- and ΔF508-CFTR) was 2,033±173 milliseconds. Moreover, the “increase of ATP-dependent channel current by genistein” value on ΔF508-CFTR [4] (genistein, n=7) stood at 2.3±0.5 fold. Besides, the “effect on cAMP levels or PKA activity” value in data set [5] is “does not increase cAMP levels or PKA activity; also recorded: does not alter cellular cAMP levels or PKA activity”. Besides, the inhibition of topoisomerases entry in the data set on topoisomerases was “inhibits”. Moreover, the “inhibition of histidine kinase” value in the data set on histidine kinase is “inhibits”. Further, the “inhibition of protein phosphatase” value in the data set on protein phosphatase was “no protein phosphatase has been shown to be inhibited by genistein”. Besides, the “average increase” value at wt-CFTR [6] was 3.1±0.7 fold. Besides, on wt-CFTR [7], the “basal wt-CFTR activity” value is reported as “stimulates basal wt-CFTR activity”, the “channel activation in cells lacking basal CFTR activity” value is recorded as “does not appear to activate the channel in cells that lack a basal CFTR activity”, the “deactivation of wt-CFTR currents after removal of cAMP-dependent stimulation” value was “prevents deactivation of wt-CFTR channel currents” and the “potentiation of cAMP-dependent wt-CFTR activity” value is “potentiates cAMP-dependent wt-CFTR channel activity”. Further, the “steady-state phosphorylation of wt-CFTR” value at wt-CFTR [7] is on record as “increases the steady-state phosphorylation level of wt-CFTR”. Further, the “activation of wt-CFTR chloride channels” value on wt-CFTR [7] (variety of cells) is listed as “activates wt-CFTR chloride channels”. The “ΔF508-CFTR stimulation activity among protein tyrosine kinase inhibitors” value on ΔF508-CFTR [8] is given as “is the only protein tyrosine kinase inhibitor that has such an effect”.

These data come from patent US5948814A, “Genistein for the treatment of cystic fibrosis” (priority 1998, dated 1999).
